# Measured values published in patent US12527796B2, “[6R]-MTHF—an efficient folate alternative in 5-fluorouracil based chemotherapy” (Isofol Medical AB, priority 2017, dated 2026).
# Legend:
# pancreas cancer = conditions: combined with 5-FU; cited from earlier work
# colorectal cancer = conditions: Phase IIb; cited from earlier work
# [1] = tested on: metastatic colorectal carcinoma; conditions: modulation of 5-FU with LV; cited from earlier work
# [2] = tested on: stage IV colorectal cancer; test: ISO-CC-005 open-label Phase I/II dose cohort trial of [6R]-MTHF with 5-FU (response per RECIST 1.1, adverse events); type: in vivo, human
# Description: As used herein, the term ORR shall refer to the Objective Response Rate, ie. the proportion of patients with reduction in tumor burden of a predefined amount. […] (Note: the appearance of one or more new lesions is also considered progression). Stable Disease (SD): • Neither sufficient shrinkage to qualify for PR nor sufficient increase to qualify for PD, taking as reference the smallest sum diameters while on study. ([…], Schwartz […], Ford R, et al. New response evaluation criteria in solid tumours: revised RECIST guideline (version 1.1). Eur J Cancer. 2009 January; 45(2):228-47) […] A maximum of 63 Stage IV CRC patients eligible for 1st, 2nd or 3rd line treatment are planned to be enrolled in this study disposed as follows: three to six patients in each dose cohort, and three additional patients in one dose cohort in each treatment arm according to the following study design (Table 1). [table] […] Dosing: Rapid i.v. bolus injections at a fixed dose of 30, 60, 120 or 240 mg/m^2, will be administered approximately 30 minutes after administration of 5-FU on Day 1 and Day 2 in each treatment cycle in all ^dose cohorts of the study (i.e. regardless of treatment arm). The regimen will be repeated every second week for up to eight (8) cycles, i.e. up to sixteen (16) weeks. 5-FU (5-fluorouracil) is formulated as injection solution. Dosing: 5-FU will be administered as i.v. bolus injections on Day 1 and Day 2 in each treatment cycle. In Arm #2 and Arm #3 of the study, 5-FU will be administered approximately 60 minutes after start of Oxaliplatin or Irinotecan administration, respectively (see description below). The regimen will be repeated every second week for up to eight (8) cycles, i.e. up to sixteen (16) weeks. ISO-CC-005 is an open clinical phase I/II tolerability and dose definition study designed to evaluate safety and define the [6R]-MTHF dose for continued development. It evaluates four doses of [6R]-MTHF in combination with 5-FU with or without the different combinations of irinotecan or oxaliplatin and bevacizumab in patients with metastatic Colorectal Cancer using 4 different protocols: • MOD+5-FU: [6R]-MTHF in combination with 5-FU only, similar to Nordic FLV protocol • MOD+[…] in combination with 5-FU and Irinotecan, similar to Nordic FLIRI protocol • MOD+FLOX: [6R]-MTHF in combination with 5-FU and Oxaliplatin, similar to Nordic FLOX protocol • MOFOX: [6R]-MTHF in combination with 5-FU and Oxaliplatin, similar to FOLFOX-6 protocol The patients belong to several treatment lines ranging from first to third and even fifth lines. The results of the study are regularly assessed, and the results from the group of patients undergoing 1st line treatment and partially the group of patients undergoing 2nd, 3rd and 5th line treatment have previously (in August 2017) and again (December 2017) been analyzed. The clinical study is still ongoing. […] (see FIG. 2). Four (4) 1st line patients could not be followed for the additional 8 weeks' treatment due to study protocol formalities. No further 1st line patients had been analysed at this point.
# Thymidylate Synthase = Thymidylate Synthase (Lacticaseibacillus casei, UniProt P00469); conditions: cited from earlier work
# Sequence of Thymidylate Synthase (P00469 whole entry): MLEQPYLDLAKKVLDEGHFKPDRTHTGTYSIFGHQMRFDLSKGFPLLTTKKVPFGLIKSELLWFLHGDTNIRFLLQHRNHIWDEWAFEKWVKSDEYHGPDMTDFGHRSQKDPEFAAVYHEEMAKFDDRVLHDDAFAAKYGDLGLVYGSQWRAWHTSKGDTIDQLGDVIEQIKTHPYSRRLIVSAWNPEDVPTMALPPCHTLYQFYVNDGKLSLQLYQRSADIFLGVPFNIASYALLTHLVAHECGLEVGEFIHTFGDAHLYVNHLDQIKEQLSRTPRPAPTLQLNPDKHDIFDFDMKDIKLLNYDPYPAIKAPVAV
# [3] = 1st line patients, 8 weeks' treatment
# [4] = 30 patients, 1st, 2nd, 3rd and 5th line, after 8 weeks' treatment
smiles,measurement,setting,value
"Nc1nc2c(c(=O)[nH]1)N1CN(c3ccc(C(=O)N[C@@H](CCC(=O)[O-])C(=O)[O-])cc3)CC1CN2.[Ca+2] (stereo partly drawn) [CoFactor, [6R,S]-5,10-methylene-THF Ca salt]","patients with clinical benefit, defined as stable disease or tumor response",pancreas cancer,40%
same,differences between the study arms (CoFactor vs leucovorin) with regard to efficacy or safety,colorectal cancer,no significant differences
Nc1nc2c(c(=O)[nH]1)N(C=O)C(CNc1ccc(C(=O)N[C@@H](CCC(=O)O)C(=O)O)cc1)CN2 (stereo partly drawn) [Leucovorin],time-to-progression (TTP) of disease,[1],prolongation of the time-to-progression (TTP)
"Nc1nc2c(c(=O)[nH]1)N1CN(c3ccc(C(=O)N[C@@H](CCC(=O)O)C(=O)O)cc3)C[C@H]1CN2 [[6R]-MTHF, [6R]-5,10-methylenetetrahydrofolate]",ORR,[2]; [3],50%
same,"patients with clinical benefit, defined as stable disease or partial response",[2]; [3],100%
same,patients showing clinical benefit,"[2]; 1st line patients, 16 weeks of treatment",100%
same,"patients with clinical benefit, defined as stable disease or partial response","[2]; 2nd, 3rd or 5th line patients (25), after 8 weeks' treatment",64%
same,patients with partial response,[2]; [4],27%
same,patients with progressive disease,[2]; [4],13%
same,patients with stable disease,[2]; [4],60%
same,"clinical benefit, defined as stable disease or tumor response, treated patients",[2]; [6R]-MTHF combined with 5-FU,> 90%
same,ORRs (objective response rates),"[2]; colorectal cancer patients, initial 5-FU followed by [6R]-MTHF",50-60%
same,progression in the cancer after the initial 8 weeks' treatment,"[2]; eight 1st line patients, 16 weeks of treatment",no progression
same,"toxicity of 5-FU when combined with [6R]-MTHF, compared to 5-FU with other folate adjuvants",[2]; in vivo,reduced
same,patients showing Partial Response at 16 weeks,[2]; of eight 1st line patients,5 patients
same,patients showing Stable Disease at 16 weeks,[2]; of eight 1st line patients,3 patients
same,treated patients with at least a 25% decrease in the sum of the diameters of target lesions,"[2]; reference baseline sum diameters, with 5-FU",~65%
"Nc1nc2c(c(=O)[nH]1)N1CN(c3ccc(C(=O)N[C@@H](CCC(=O)O)C(=O)O)cc3)C[C@@H]1CN2 (single isomer, unassigned) [[6S]-isomer]",effect on the natural [6R]-isomer as co-substrate for TS,Thymidylate Synthase,partial competitive inhibitor
